Laboratory results taken from patent publication US20220339178A1, “COMPOSITIONS AND METHODS FOR COGNITIVE PROTECTION OF POLLINATORS AGAINST PESTICIDES” (priority 2019, published 2022).

Legend:
[1] = system: Honey bee foragers (Apis mellifera scutellata); assay: Classical conditioning of PER in honey bees: rutin, kaempferol, p-coumaric acid vs fipronil; assay type: in vivo
Procedure: Honey bee foragers (Apis mellifera scutellata) were captured from established hives at the Apiary of the Universidad del Rosario (Bogota, Colombia) between 08:00 h and 10:00 h. Bees were ice-anesthetized and harnessed in plastic tubes and maintained under laboratory conditions for the duration of the experiment (five days). Food was provided twice a day in a volumen of 10 μL and varied in composition according to experimental treatments.
Bees were randomly allocated to one of the following treatments administered twice a day for three consecutive days (all concentrations are final):
Control: 1M sucrose water (10 μL)
Rut: 1 μM rutin (Sigma-Aldrich: R5143)-1M sugar water (10 μL)
Kaemp:131 μM kaempferol (Sigma-Aldrich:K0133)+1M sugar water (10 μL)
p-Cou A: 200 μM p-coumaric acid (Sigma-Aldrich:C9008) diluted in 1M sugar water (10 μL)
Mix: 1 μM rutin, 131 μM kaempferol and 200 μM p-Coumaric acid): Bees fed with composition diluted in 1M sugar water (10 μL) fed twice a day for three days
On the fourth day, bees were randomly assigned to one of two treatments three hours before training:
Fipronil: 10 μL of 228 nM Fipronil (Astuto Invesa) in 1M sucrose water
Sucrose solution: 10 μL 1M sucrose water
Thus, bees belong to one of ten treatments: Control, Kaemp, Rut, p-Cou A, Mix, Fipro, Kaemp+Fipro, Rut+Fipro, p-Cou A+Fipro, Mix+Fipro.
(§1) Bees were trained using classical conditioning of the proboscis extension response (PER). Briefly, bees received a soft current of clean air for 15 seconds to allow bees to accommodate. Then a soft current of 1-hexanol (Sigma-Aldrich: 471402) was injected for 10 seconds. Six seconds after injection of 1-hexanol, one of the antennae was stimulated with sugar water (1.5M), which leads to the reflexive extension of the proboscis, and the bee was allowed to drink for 4 seconds. Thus, the reward and the stimulus overlapped for four seconds. This sequence, recognized as a training trial, was repeated eleven times. Time was determined using a metronome (2 Hz). Memory retention was tested 24 hours after the eleven training trials. […] 12 bees were trained each session. Training was conducted by an experimenter blind to treatment.
Learning for each individual was quantified as the number of conditioned PER responses across the trials. Thus, for each bee a learning score between zero and ten (0-10) was recorded.
Multiple comparisons were then run comparing learning score relative to Control bees using a non-parametric one or two-tailed Steel Method depending upon predictions. These comparisons informed us about the predicted impairment produced by the insecticides, the predicted innocuous effect of the flavonoid and the potential level of protection. Error due to multiple comparisons was controlled using the False Discovery Rate method (FDR-two stage sharpened method). In all cases corrected p-values (q-values) are presented.
Memory retention was quantified as a nominal variable (yes/no). Data were compared across treatments using a Chi-square test, followed by multiple comparisons of all treatments vs. Control. Error due to multiple comparisons was controlled using the FDR as indicated above. In all cases corrected p-values (q values) are presented.
Latency was quantified as a continuous variable between 0.5 s and 10 s. Data were compared across treatments using an ANOVA following a Log transformation to normalize the distribution (Shapiro-Wilk W Test after log transformation: p>0.05 for all treatments for the null hypothesis that data is from a normal distribution), followed by multiple comparisons between all treatments and the Control group (Dunnett's method). Error due to multiple comparisons was controlled using the FDR method as indicated above. In all cases corrected p-values (q-values) are presented.

[2] = system: Honeybees (Apis mellifera scutellata); assay: Classical conditioning of the proboscis extension response (PER): learning, 24 h memory retention, latency; flavonoids vs imidacloprid; assay type: in vivo; settings: for memory retention, proportion difference relative to Control bees (Adjusted Wald test): conditioned PER after 24 h; for latency of response during learning acquisition relative to Control bees / learning scores relative to Control bees: honey bees; for learning scores relative to Control bees: 8 trials, score 0-7, quercetin 6.6 mM or rutin 1 mM once a day for three days, imidacloprid 1.16 nM 20 μL 1.5 h before training
Procedure: Honeybees (Apis mellifera scutellata) were captured from established hives at the Apiary of the Pontificia Universidad Javeriana (Bogota, Colombia). Foragers were collected while leaving to forage between 8:00 am and 10:00 am (Matsumoto et al., J Neurosci Methods. 211(1):159-67. 2012). Bees were maintained in individual plastic chambers under laboratory conditions (photoperiod followed seasonal pattern; relative humidity: 63%; temperature: 18° C.). Food was provided once a day in a volume of 20 μL and varied in composition according to experimental treatments.
Control (2M sugar water): fed once a day (20 μL) for three consecutive days;
Quercetin (6.6 mM quercetin (Sigma-Aldrich: Q4951)-sucrose-water with DMSO 1% (Sigma-Aldrich: D8418): fed once a day for three days;
Rutin (1 mM rutin (Sigma-Aldrich R5143)-sucrose-water with DMSO 1%: fed once a day for three days;
Imidacloprid (1.16 nM Imidacloprid (Bayer)-sucrose-water: fed as a single dose (20 μL) 1.5 h before training;
Quercetin-Imidacloprid: bees received the quercetin treatment (see above) and were fed Imidacloprid 1.5 h before training; and
Rutin-Imidacloprid: bees received the rutin treatment (see above) and were fed Imidacloprid 1.5 h before training.
as §1, with “(PER), a broadly used method to study learning and memory in bees.” for “(PER).”, “sucrose” for “sugar”, “(50% w/w),” for “(1.5M),”, “eight” for “eleven”
Learning was assessed from the total number of conditioned responses across the eight trials. Thus, each bee received a learning score between 0-7 (by definition, bees cannot show a learned response at the first trial). After 24 h, memory retention was assessed as the response to the presentation of 1-hexanol without a sucrose reward. Latency of response was quantified as the time between the onset of 1-hexanol stimulation and the onset of a response that led to a full extension of proboscis. Only bees being responsive to sucrose water across all training trials and the memory retention test were considered for analyses. Learning scores were compared across treatments using a Mann-Whitney test as data were not normally distributed (Shapiro-Wilk W test for the hypothesis that the data is from a Normal distribution: P<0.05 for all treatments). Comparisons of the learning score of bees across all treatments relative to Control bees were conducted using the Steel method adjusted as one or two-tailed tests. Additional post hoc comparisons were performed between Imid and Quer+Imid bees and between Imid and Rut+Imid bees. Memory retention was compared across groups using an overall Chi-Square test and independent tests for planned comparisons were performed using adjusted Wald tests for proportions. In all cases error due to multiple comparisons was controlled using the False Discovery Rate one stage method and adjusted p-values (q-values) are presented (Benjamini & Hochberg, Journal of the Royal Statistical Society. Series B (Methodological), 57(1):289-300. 1995; Pike, N., Methods in Ecology and Evolution, 2(3):278-282. 2011). All analyses were conducted using JMP v.14.0 (SAS Institute Inc). […]

SMILES	latency of response relative to Control bees ([1]; Dunnett's method)	learning score relative to Control bees ([1]; honey bees, score 0-10, 1 μM rutin, 131 μM kaempferol, 200 μM p-coumaric acid or Mix twice a day for three days, 228 nM fipronil 10 μL three hours before training)	memory retention, proportion difference relative to Control bees (Adjusted Wald test) [2]	latency of response during learning acquisition relative to Control bees [2]	learning scores relative to bees in the Imid group ([2]; honey bees prophylactically fed flavonoid for three days, then imidacloprid 1.5 h before training)	learning scores relative to Control bees [2]	odds of remembering for Control bees relative to Imid bees ([2]; 24 h retention)	probability of exhibiting a conditioned PER after 24 h relative to Control bees ([2]; 24 h retention)	bees exhibiting a conditioned PER after 24 h ([2]; retention test 24 h after training)
C[C@@H]1O[C@@H](OC[C@H]2O[C@@H](Oc3c(-c4ccc(O)c(O)c4)oc4cc(O)cc(O)c4c3=O)[C@H](O)[C@@H](O)[C@@H]2O)[C@H](O)[C@H](O)[C@H]1O [Rutin]	not significantly different from Control	not significantly different from Control bees	−0.14	not significantly different from Control	significantly higher learning scores	significantly higher learning scores	–	–	–
O=[N+]([O-])NC1=NCCN1Cc1ccc(Cl)nc1 [Imidacloprid]	–	–	0.49	not significantly different from Control	–	significantly lower	9.1 times	significantly lower	20%
